Assays:
[1] = tested on: Flk-1+ cells isolated from day 3.25 Ainv-Notch4 EBs; experiment: Cardiac assay of reaggregated Flk-1+ cells from Ainv-Notch4 EBs; assay type: cell-based
Method: (§1) Sorted cells were reaggregated for 24 hours in StemPro-34 serum-free medium (hwitrogen) containing 2 mM L-glutamine (GIBCO/BRL), transferrin (200 μg/ml), 0.5 mM ascorbic acid and 4.5×10^−4 M MTG at 3×10^5 cells per ml in ultra-low-attachment 24-well plates (Costar). Single aggregates or pools of aggregates were replated in gelatin-coated 96- or 24-well plates containing SternPro with 2 mM L-glutamine for cardiac culture. Following 2 to 4 days of culture the proportion of aggregates containing contracting cells was scored and the number of Troponin T-positive cells was evaluated by flow cytometric analyses. For the aggregated and cardiac cultures, doxycycline (Dox) was used at 0.5 μg/ml and γ-secretase inhibitor X at 5 μM (dissolved in DMSO). The same concentration of DMSO was added to the control cultures. Medium was changed everyday to provide fresh Dox and inhibitor.
To investigate the potential of Notch4 to initiate a cardiogenic program in this early stage of hemangioblast population, Flk-1^+ cells isolated from day 3.25 Ainv-Notch4 EBs were reaggregated for 24 hours in the presence or absence of Dox as described above. The resulting aggregates were then cultured in gelatin-coated microliter wells containing serum-free media (hereafter referred to as cardiac cultures). These conditions efficiently support cardiomyooyte development from cardiogenic mesoderm (Kouskoff et al. (2005) Proc. Natl. Acad. Sci. 102:13170-13175). Both single aggregates and pools of aggregates were cultured for 2-3 days. Following this maturation step, the cultures of single aggregates were scored for the presence of contracting cells indicative of cardiomyocyte differentiation. None of the aggregates generated in the absence of Dox (−Dox/−Dox) contained contracting cells (FIG. 3A). Rather, these aggregates underwent heniatopoietio differentiation as indicated by the development of hemoglobinized erythroid cells, an observation consistent with the hemangioblast potential of this population. […] (FIG. 3B, right panel). Few cTnT cells were atected among the adhesive cells generated from non-induced aggregates (FIG. 3B, left panel). Cultures of the pooled induced aggregates generated extensive areas of contracting cells. Contracting cells were not detected in the cultures of the non-induced aggregates. Flow cytometric analysis of the differentiated progeny from pooled inducedaggregates confirmed the dramatic cardiogenic effect of Notch4 as greater than 60% of the entire cell population expressed cTnT after 2 days in the cardiac cultures (+Dox/−Dox, FIG. 3C). Less than 1% of the cells generated from the non-induced population expressed cTnT (−Dox/−Dox, FIG. 3C). […]

[2] = tested on: GFP-Bry+/Flk-1- fraction from GFP-Bry/Ainv-Notch4 ES cells; experiment: Cardiac assay of reaggregated GFP-Bry+/Flk-1- cells; assay type: cell-based
Method: as §1
Cardiac potential has been mapped to the Flk-1^− fraction of brachytury-expressing mesoderm (GFP-Bry^+/Flk-1^−) at early singes of EB development (Kouskoff et al., supra). To investigate the role of Notch4 during cardiac differentiation of this mesoderm, the GFP cDNA was targeted to the brachyury locus of Ainv cells to enable the overexpression of Notch4 in the GFP-Bry^+/Flk-1^− population. The GFP-Bry^+/Flk-1^− fraction was isolated from clay 3.25 EBs derived from the GFP-Bry/Ainv-Notch4 ES cells, reaggregated for 1 day and the resultant aggregates plated in cardiac cultures. γ-Secretase inhibitor or Dox was added to the cells either during the reaggregation step or to the cardiac cultures to further define the stage specific effects of Notch4. Three days following differentiation of the aggregates in the cardiac cultures, the proportion of cTnT-positive cells and the expression of cardiac genes were analyzed (FIG. 7). […] As expected, this population expressed the spectrum of cardiac genes. Induction of Notch4 during the reaggregation stage (+Dox/−Dox) enhanced cardiomyocyte development over that observed in the control cultures (FIG. 7C). […]

[3] = tested on: Flk-1+ cells from Bry-GFP ES cells on OP9-DL1 cells; experiment: Culture of Flk-1+ cells on Dll-1 expressing OP9 stromal cells; assay type: cell-based; settings: inhibitor 5 μM; 3 days of culture
Method: OP9-DL1 cells described by Schmitt et al. (2004) Nat. Immunol. 5:410-417 were cultured in a 24-well plate and irradiated before use. Day 3.25 EB-derived Flk-1^+ cells (3×10^4 per well) were seeded onto OP9 cells in the same medium used for the cardiac cultures. γ-Secretase inhibitor X (dissolved in DMSO) at 5 μM or a corresponding volume of DMSO was included in the cultures. Medium was changed everyday to supply fresh inhibitor. After 3 days of culture, the cells were harvested and subjected to flow oytometric analysis to determine the number of Troponin T-positive cells.
Following 3 days of culture, areas of contracting cells were detected on the OP9 stromal cells, with approximately 24% of the cells expressing cTnT (FIG. 6A).

[4] = tested on: BL-CFC in day 3.25 Flk-1+ cells; experiment: Blast colony (BL-CFC) assay; assay type: cell-based
Method: The blast and hematopoietic colony assays were performed as described Kennedy et al., (2003) Metods Enzymol. 365:39-59. Dox was added at 0.5 μg/ml to induce Notch4 expression and y-secretase inhibitor X (L685,458, Calbiochem) at 5 μM to blook Notch signaling in the:blast colony culture. To generate mixed hemangioblastkardiac colonies, blast colony growth was initiated in standard blast colony cultures containing Dox for 24 hours. The developing colonies were then washed from with methycellulose with IMDM containing 10% FCS to remove Dox. The colonies were recultured in blast colony metycellulose supplemented with Erythropoietin (2 U/ml) and IL-3 (1% conditioned medium). Mixed colonies containing an inner cardiac core surrounded by outer hematopoietic cells were picked for analysis at day 7.
To determine if the BL-CFC is the target of the Notch4-induced fate change, day 3.25 Flk-1^+ cells were cultured in the BL-CFC assay in the presence or absence of Dox. In the absence of Dox, this population generated typical blast colonies that appeared as grape-like clusters of cells. When cultured in the presence of Dox, these cells formed compact colonies of tightly packed cells that were easy to distinguish from the blast colonies (FIG. 5A). The number of these compact colonies was similar to the number of blast cell colonies that developed in the non-induced cultures (FIG. 5B). […] None of these colonies expressed gata-1. As shown previously, blast colonies expressed the endothelial genes as well as gata-1. […] With extended time in the methylcellulose cultures, some of the compact colonies generated contracting cells. To quantify the proportion of colonies that generated contracting cells, individual colonies were picked at day 7 of culture and replated in microtiter wells in the cardiac cultures. Approximately 70% of the compact colonies generated contracting cells between 2 and 7 days of culture. The contracting cells expressed cTnT, confirming that they were cardiomyocytes (FIG. 5D).

[5] = tested on: posterior primitive streak explants; experiment: E7.5 primitive streak explant cultures; assay type: cell-based, mouse; settings: inhibitor 10 μM; 5 days of culture
Method: Female swiss webster mice (Taconic) were mated with male GFP-Bry^+/− mice described by Huber et al., (2004) Nature 432:625-630. Pregnant mice were sacrificed 7.5 days after mating and the embryos were isolated. Dissections were performed under a Leica MZFLIII fluorescence dissecting stereomicrosope to visualize the GFP expression in the primitive streak (PS). Using tungsten needles (Fine Science tools), the PS of GFP-Bry^+/− embryos were isolated and separated into posterior and anterior regions. Individual anterior and posterior PS pieces were plated in gelatin-coated 96-well dishes with medium for cardiac cultures. γ-Secretase inhibitor at 10 μM or a corresponding volume of DMSO was included in the cultures. Medium was changed everyday to provide fresh inhibitor. After 3-5 days, the explants were scored for the presence of contracting foci and harvested for gene expression analysis.
When isolated PPS are plated in the cardiac cultures contracting cardiomyocytes can be detected within 3 to 5 days. To investigate whether Notch signalling is required for the development of the cardiomyocyte lineage from embryo-derived tissues, PPSs were cultured in the presence or absence of γ-secretase inhibitor and then analyzed for the development of contracting cells and for the expression of cardiac genes. […]

Ainv-Notch4 ES cells = experiment: Flow cytometric analysis for HA-Notch4 expression after induction; assay type: cell-based; settings: one day following Dox 0.5 μg/ml induction
Method: Dissociated cells were incubated with biotinylated mAbs (against Flk-1, VE-cad, or CD41) in PBS containing 10% FCS on ice for 30 min. The cells were then washed once and incubated with streptavidin-PE-Cy5 (BD Pharmingen) for another 30 minutes on ice. Following an additional two washes, the cells were analyzed on a FACSCalibur flow cytometer (BectonDicldnson) or sorted on a Moflo cell sorter (Cytomation). For Troponin T or HA staining, cells were fixed in 4% paraformaldehyde (PFA) for 30 minutes and then incubated in a permeabilizing buffer consisting of PBS with 10% FCS and 0.1% saponin (Sigma) for 10 minutes. Following fixing and permeabilization, the cells were washed twice and incubated with an anti-Troponin T (unconjugated mouse antibody, Lab Vision) or anti-HA (conjugated with biotin, Covance) antibody for 30 minutes. After two washes, the cells were incubated with a secondary APC-conjugated goat anti-mouse antibody (for Troponin T antibody) or streptavidin-PE-Cy5 (for biotinylated HA antibody) for 30 minutes. Finally, the cells were washed twice with permeabilizing buffer and then twice with buffer without saponin. […] One day following Dox (0.5 μg/ml) induction, 90% of Ainv-Notch4 ES cells expressed Notch4 as determined by flow cytometric analysis for HA expression (FIG. 2A).

[6] = +Dox+inhibitor/-Dox, inhibitor 5 μM during the reaggregation step
[7] = inhibitor during the aggregation stage (+I/-I)

Structure (SMILES): CC(C)C[C@H](NC(=O)[C@H](Cc1ccccc1)C[C@@H](O)[C@H](Cc1ccccc1)NC(=O)OC(C)(C)C)C(=O)N[C@@H](Cc1ccccc1)C(N)=O [γ-secretase inhibitor]
- expression of cardiac genes [1, 6]: inhibited
- generation of contracting cells [1, 6]: inhibited
- proportion of cTnT-expressing population compared to control ([2]; inhibitor added to the cardiac cultures (-I/+I)): modestly increased
- development of cTnT-positive contracting cells [2, 7]: suppressed
- expression levels of the cardiac genes [2, 7]: reduced
- cardiomyocyte development (cTnT+ cells) [3]: inhibited
- colony type (blast vs compact colonies) ([4]; inhibitor 5 μM together with Dox 0.5 μg/ml, 4 days): reversal back to blast colonies
- PS explants that generated contracting cells [5]: Less than 10%
- expression of cardiac genes in explants [5]: inhibited in some but not all of the explants

Structure (SMILES): C[C@H]1c2cccc(O)c2C(=O)C2=C(O)[C@]3(O)C(=O)C(C(N)=O)=C(O)[C@@H](N(C)C)[C@@H]3[C@@H](O)[C@@H]21 [Dox, doxycycline]
- cell population expressing cTnT ([1]; +Dox/-Dox, pooled aggregates, 2 days in cardiac cultures): greater than 60%
- aggregates containing contracting cells ([1]; Flk-1+ cells from day 4 EBs, Dox 24 hours): 25%
- mixed colonies that generated contracting cells ([4]; Dox exposure limited to 24 hours, replated into cardiac cultures): 45%
- compact colonies that generated contracting cells ([4]; colonies formed in presence of Dox, picked at day 7, 2 to 7 days in cardiac cultures): Approximately 70%
- Ainv-Notch4 ES cells expressing Notch4 (HA expression) (Ainv-Notch4 ES cells): 90%

Reference: patent US20120149100A1, “CARDIOMYOCYTE CELL POPULATIONS” (Mount Sinai School of Medicine, priority 2005, published 2012)
